Data reported in US5488051A, “Substituted 5,6-dihydro-5-oxo-1,4-dithiino-(2,3-d)-pyridazine-2,3-dicarbonitriles, compositions containing them and their use as antimicrobials” (The Dow Chemical Company, priority 1994, dated 1996).
Converted amounts (≈) assume the structure as drawn. Where two headings read alike, the source gives them in different places.

Key:
Bacillus subtilis (Bs) = test: MIC for Bacillus subtilis, nutrient agar; type: cell-based, Bacillus subtilis ATCC 8473; details: 30° C., 48 hours, read-out: Minimum Inhibitory Concentration (MIC), Bs
Outline: (§1)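 Overnight nutrient-broth cultures (24 h, 30° C, shaken) diluted to 10^8 CFU/mL and spotted with a Steer's Replicator onto compound-containing nutrient agar plates, neutral and alkaline pH. Incubation 48 h at 30° C; MIC read as the lowest level preventing visible growth.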

[1] = system: Enterobacter aerogenes (Ea); test: MIC for Enterobacter aerogenes, nutrient agar; type: cell-based, Enterobacter aerogenes ATCC 13048; details: Klebsiella aerogenes, nutrient agar, 30° C., 48 hours, read-out: Minimum Inhibitory Concentration (MIC), Ea
Outline: as §1

Escherichia coli (Ec) = test: MIC for Escherichia coli, nutrient agar; type: cell-based, Escherichia coli ATCC 11229; details: 30° C., 48 hours, read-out: Minimum Inhibitory Concentration (MIC), Ec
Outline: as §1

[2] = system: Klebsiella pneumonias (Kp); test: MIC for Klebsiella pneumonias, nutrient agar; type: cell-based, Klebsiella pneumonias ATCC 8308; details: 30° C., 48 hours, read-out: Minimum Inhibitory Concentration (MIC), Kp
Outline: as §1

[3] = system: Pseudomonas aeruginosa (Pa); test: MIC for Pseudomonas aeruginosa, nutrient agar; type: cell-based, Pseudomonas aeruginosa ATCC 10145; details: 48 hours, read-out: Minimum Inhibitory Concentration (MIC), Pa
Outline: as §1

Salmonella choleraesuis = test: MIC for Salmonella choleraesuis, nutrient agar; type: cell-based, Salmonella choleraesuis ATCC 10708; details: Salmonella enterica, 30° C., 48 hours, read-out: Minimum Inhibitory Concentration (MIC), SC
Outline: as §1

[4] = system: Staphylococcus aureus (Sa); test: MIC for Staphylococcus aureus, nutrient agar; type: cell-based, Staphylococcus aureus ATCC 6538; details: 30° C., 48 hours, read-out: Minimum Inhibitory Concentration (MIC), Sa
Outline: as §1

Aspergillus niger (An) = test: MIC for Aspergillus niger, malt yeast agar; type: cell-based, Aspergillus niger ATCC 16404; details: malt yeast agar; 30° C., 72 hours for fungi; read-out: Minimum Inhibitory Concentration (MIC), An
Outline: (§2)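 Agar dilution on malt yeast agar with compound (from 1% acetone/water solution) at final 0, 1.0, 2.5, 5, 10, 25, 50, 100, 250, 500 ppm. Plates inoculated by replicator with saline suspensions (1:9 diluted) of 7-day cultures; incubated at 30 °C, read at 48 h for yeast and 72 h for fungi.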

[5] = system: Penicillium chrysogenum (Pc); test: MIC for Penicillium chrysogenum, malt yeast agar; type: cell-based, Penicillium chrysogenum ATCC 9480; details: malt yeast agar; 30° C., 72 hours for fungi; read-out: Minimum Inhibitory Concentration (MIC), PC
Outline: as §2

Saccharomyces cerevisiae = test: MIC for Saccharomyces cerevisiae, malt yeast agar; type: cell-based, Saccharomyces cerevisiae ATCC 4105; details: malt yeast agar, 30° C., 48 hours for yeast, read-out: Minimum Inhibitory Concentration (MIC), Sc
Outline: as §2

Trichoderma viride (Tv) = test: MIC for Trichoderma viride, malt yeast agar; type: cell-based, Trichoderma viride ATCC 8678; details: malt yeast agar; 30° C., 72 hours for fungi; read-out: Minimum Inhibitory Concentration (MIC), Tv
Outline: as §2

[6] = system: Aureobasidium pullulan (Ap); test: MIC for Aureobasidium pullulan, malt yeast agar; type: cell-based, Aureobasidium pullulan ATCC 16622; details: malt yeast agar; 30° C.; 48 hours for yeast and 72 hours for fungi; read-out: Minimum Inhibitory Concentration (MIC), Ap
Outline: as §2

Fusarium oxysporum (Fo) = test: MIC for Fusarium oxysporum, malt yeast agar; type: cell-based, Fusarium oxysporum ATCC 48112; details: malt yeast agar; 30° C., 72 hours for fungi; read-out: Minimum Inhibitory Concentration (MIC), Fo
Outline: as §2

Row | SMILES | MIC (Bacillus subtilis (Bs); pH 6.8, nutrient agar) [µg/mL] | MIC (Bacillus subtilis (Bs); pH 8.2, nutrient agar) [µg/mL] | MIC ([1]; pH 6.8) [µg/mL] | MIC ([1]; pH 8.2) [µg/mL] | MIC (Escherichia coli (Ec); pH 6.8, nutrient agar) [µg/mL] | MIC (Escherichia coli (Ec); pH 8.2, nutrient agar) [µg/mL] | MIC ([2]; pH 6.8, nutrient agar) [µg/mL] | MIC ([2]; pH 8.2, nutrient agar) [µg/mL] | MIC ([3]; pH 6.8, 30° C.) [µg/mL] | MIC ([3]; pH 8.2, 30° C.) [µg/mL] | MIC (Salmonella choleraesuis; pH 6.8, nutrient agar) [µg/mL] | MIC (Salmonella choleraesuis; pH 8.2, nutrient agar) [µg/mL] | MIC ([4]; pH 6.8, nutrient agar) [µg/mL] | MIC ([4]; pH 8.2, nutrient agar) [µg/mL] | MIC (Aspergillus niger (An)) [µg/mL] | MIC [5] [µg/mL] | MIC (Saccharomyces cerevisiae) [µg/mL] | MIC (Trichoderma viride (Tv)) [µg/mL] | MIC [6] [µg/mL] | MIC (Fusarium oxysporum (Fo)) [µg/mL]
1 | Cc1ccc(-n2ncc3c(c2=O)SC(C#N)=C(C#N)S3)cc1 [B, 5,6-dihydro-6-(4-methylphenyl)-5-oxo-1,4-dithiino-(2,3-d)-pyridazine-2,3-dicarbonitrile] | < 10 | 25 (≈ 77.1 µM) | > 500 | > 500 | 50 (≈ 154 µM) | > 500 | 50 (≈ 154 µM) | > 500 | > 500 | > 500 | > 500 | > 500 | < 10 | 25 (≈ 77.1 µM) | 25 (≈ 77.1 µM) | 25 (≈ 77.1 µM) | < 10 | 25 (≈ 77.1 µM) | < 10 | 25 (≈ 77.1 µM)
2 | N#CC1=C(C#N)Sc2c(cnn(-c3ccc(Br)cc3)c2=O)S1 [C, 5,6-dihydro-6-(4-bromophenyl)-5-oxo-1,4-dithiino-(2,3-d)-pyridazine-2,3-dicarbonitrile] | < 10 | 100 (≈ 257 µM) | > 500 | > 500 | 100 (≈ 257 µM) | > 500 | > 500 | > 500 | > 500 | > 500 | 100 (≈ 257 µM) | > 500 | > 500 | > 500 | 10 (≈ 25.7 µM) | 25 (≈ 64.2 µM) | 10 (≈ 25.7 µM) | 25 (≈ 64.2 µM) | 10 (≈ 25.7 µM) | 10 (≈ 25.7 µM)
